Where a name gives a salt, the structure may show the parent alone.
Columns and labels:
[1] = molecular target: T1, myosin light chain phosphorylation enzyme (MLCK) (Gallus gallus, UniProt P11799); experiment: Action on myosin light chain phosphorylation enzyme (MLCK) activity; type: biochemical, chicken; conditions: for IC50: MLCK from chicken gizzard smooth muscle, ELISA, 100 μM ATP, read-out: Myosin light chain phosphorylation enzyme inhibitory action IC50; for inhibition of MLCK: result in words
T1 construct: purified from chicken gizzard smooth muscle by a conventional method; from tissue; host or cells: chicken gizzard smooth muscle
Method: A myosin light chain phosphorylation enzyme (MLCK) was purified from chicken gizzard smooth muscle by a conventional method (Yoshida, M., et al., J. Biochem., 99, 1027–1036 (1986)). The myosin regulatory light chain as a substrate was purified from the chicken gizzard smooth muscle by a conventional method (Grand, R. J., et al., Biochem. J., 211, 267–272 (1983)). The MLCK activity was measured by ELISA using pLC1 described in Test Example 1 (Sakurada, K., et al., J. Biochem., 115, 18–21 (1994)). The myosin regulatory light chain was diluted in phosphate-buffered saline (PBS, Sigma) to a concentration of 5.0 µg/ml, added to 96-well Immunoplate (Nunc) in a volume of 100 μl per well and left stand overnight at 4° C. Each well was washed with PBS, and 25 mM Tris/HCl buffer containing 100 μM ATP, 3 mM MgCl2, 1 mM CaCl2, 100 ng/ml of calmodulin (Sigma) and 100 ng/ml of MLCK (pH 7.4, Buffer A) was added to each well and incubated at 30° C. for 10 minutes. In a volume of 100 μl each of 20% aqueous phosphoric acid solution was added to each well to terminate the enzymatic reaction. Each well was washed with 25 mM Tris/HCl buffer (TTBS) containing 0.1% Tween 20, and then 100 μl each of pLC1 described in Test Example 1 was added to each well and incubated at room temperature for 90 minutes.
Each well was washed with TTBS, and then 100 μl of the HRP-labeled rabbit anti-mouse IgG antibodies (Bio-Rad) were added to each well and incubated at room temperature for 90 minutes. Each well was washed with TTBS, and then 25 mM citrate buffer (pH 5.0) containing orthophenylenediamine (Sigma) as a substrate of HRP and aqueous hydrogen peroxide (0.03%) was added in a volume of 100 μl per well and incubated at room temperature for 5 minutes. 50 μl of 4 N sulfuric acid was added to each well to terminate the reaction, and then absorbance was measured by using an immunoplate reader (Bio-Rad).

[2] = system: thoracic aorta constricted with phenylephrine; experiment: Vasoconstriction inhibitory action (Test Example 2); parameters: species or system Rats (Wistar); conditions: result in words; rat thoracic aorta, phenylephrine
Excerpt: Rats (Wistar, 11-week old) were bleeded to death and laparotomized to take out the thoracic aorta. That aorta was cut into a ring of a length of about 3 mm in a conventional manner (Asano, T., et al., J. Pharmacol. Exp. Ther., 241, pp. 1033–1040 (1987)) and hung in 10-ml organ bath filled with Krebs-Hensright nutrient solution bubbled with a mixed gas of 95% O2 and 5% CO2. One end of the blood vessel was connected to an isometric transducer (FD Pickup TB-912T, Nihon Kohden) and applied with 2.5 g of resting tension, and constriction and relaxation reactions of the aorta were recorded. The aorta was constricted with phenylephrine (1 μM, Sigma) and then added with a test compound (1 μM), and the vasoconstriction inhibitory action thereof was observed. The vasoconstriction inhibitory actions of the test compounds are shown in Table 6 mentioned below as the relaxation ratios, which are based on the vasoconstriction with phenylephrine immediately before the addition of the test compound taken as 100%.

[3] = system: intraocular pressure; experiment: Intraocular pressure reducing action (Test Example 4); type: in vivo, Japanese white rabbit; conditions: for inhibition in vivo at 1 %, 50 µL: Oryctolagus cuniculus, topical, 1% aqueous solution, 50 μl dropped to the left eye, after 2 hours, read-out: Intraocular pressure reducing action (reduction ratio) (%); for intraocular pressure reducing activity: result in words, rabbit
Method: A Japanese white rabbit having a body weight of about 2 kg was placed in a positioner and naturalized for one week before the experiment. An ophthalmologic local anesthesant (Benoxil) was administered to the left eye, and then intraocular pressure was measured by using a tonometer (Classic 30, Solan). The initial value of the intraocular pressure was measured, then 50 μl of a test compound (1% aqueous solution) was dropped to the left eye, and after 2 hours, the intraocular pressure was measured. The intraocular pressure reducing action of the test compounds is shown in Table 7 mentioned below as ratios (%) of reduction of intraocular pressure based on the initial value of the intraocular pressure.

| SMILES | vasoconstriction inhibitory action [2] | inhibition of MLCK [1] | intraocular pressure reducing activity [3] | also measured |
| --- | --- | --- | --- | --- |
| NCCCN(CCCc1ccccc1)S(=O)(=O)c1cccc2cnccc12 [Example 1, N-[(5-Isoquinolyl)sulfonyl]-N-(3-phenylpropyl)-1,3-propylenediamine hydrochloride] |  |  |  | IC50 [1]: > 50 µM |
| Cc1cncc2cccc(S(=O)(=O)N(CCCN)CCCc3ccccc3)c12.Cl [Example 5, N-[(4-Methyl-5-isoquinolyl)sulfonyl]-N-(3-phenylpropyl)-1,3-propylenediamine hydrochloride] | significant vasoconstriction inhibitory action |  |  |  |
| NCCN(CCS(=O)(=O)c1ccccc1)S(=O)(=O)c1cccc2cnccc12 [Example 7, N-[(5-Isoquinolyl)sulfonyl]-N-[2-(phenylsulfonyl)ethyl]ethylenediamine hydrochloride] |  |  |  | inhibition in vivo at 1 %, 50 µL [3]: 30.1%; IC50 [1]: > 50 µM |
| Cl.NCCCN(CCCc1ccccc1)S(=O)(=O)c1cccc2c(N)nccc12 [Example 8, N-[(1-Amino-5-isoquinolyl)sulfonyl]-N-(3-phenylpropyl)-1,3-propylenediamine hydrochloride] | significant vasoconstriction inhibitory action |  |  | IC50 [1]: > 50 µM |
| NCCCOc1cccc2c(N)nccc12 [Example 10, 3-[(1-Amino-5-isoquinolyl)oxy]propylamine hydrochloride] |  |  |  | IC50 [1]: > 30 µM |
| Cl.NCCCN(CCS(=O)(=O)c1ccccc1)S(=O)(=O)c1cccc2c(O)nccc12 [Example 13, N-[(1-Hydroxy-5-isoquinolyl)sulfonyl]-N-[2-(phenylsulfonyl)ethyl]-1,3-propylenediamine hydrochloride] | significant vasoconstriction inhibitory action |  |  |  |
| N[C@H]1CC[C@H](Nc2cccc3cnccc23)CC1 [Example 24, Trans-N-(5-isoquinolyl)-1,4-cyclohexanediamine hydrochloride] |  |  |  | inhibition in vivo at 1 %, 50 µL [3]: 35.7% |
| Cl.c1cc(OC2CCNCC2)c2ccncc2c1 [Example 27, 4-[(5-Isoquinolyl)oxy]piperidine hydrochloride] |  | did not inhibit MLCK |  | inhibition in vivo at 1 %, 50 µL [3]: 12.5% |
| Cl.Fc1cncc2cccc(NC3CCNCC3)c12 [Example 104, 4-(4-Fluoro-5-isoquinolyl)aminopiperidine hydrochloride] |  | did not inhibit MLCK |  | inhibition in vivo at 1 %, 50 µL [3]: 18.8% |
| CSc1cncc2cccc(NC3CCNCC3)c12.Cl [Example 105, 4-(4-Methylthio-5-isoquinolyl)aminopiperidine hydrochloride] | significant vasoconstriction inhibitory action |  |  | inhibition in vivo at 1 %, 50 µL [3]: 18.8% |
| Cl.NC1CCC(Nc2cccc3cncc(Br)c23)CC1 (stereo not drawn) [Example 107, N-(4-Bromo-5-isoquinolyl)-1,4-cyclohexanediamine hydrochloride] |  |  | significant intraocular pressure reducing activity |  |
| C=Cc1cncc2cccc(NC3CCNCC3)c12.Cl [Example 112, 4-(4-Vinyl-5-isoquinolyl)aminopiperidine hydrochloride] | significant vasoconstriction inhibitory action | did not inhibit MLCK |  | inhibition in vivo at 1 %, 50 µL [3]: 25% |
| CCc1cncc2cccc(NC3CCNCC3)c12.Cl [Example 113, 4-(4-Ethyl-5-isoquinolyl)aminopiperidine hydrochloride] | significant vasoconstriction inhibitory action |  | significant intraocular pressure reducing activity |  |
| Cl.Oc1nccc2c(NC3CCNCC3)cccc12 [Example 115, 4-(1-Hydroxy-5-isoquinolyl)aminopiperidine hydrochloride] |  |  | significant intraocular pressure reducing activity |  |
| Cc1cncc2cccc(N[C@H]3CC[C@@H](N)CC3)c12.Cl [Example 120, Cis-N-(4-methyl-5-isoquinolyl)-1,4-cyclohexanediamine hydrochloride] | significant vasoconstriction inhibitory action | did not inhibit MLCK | significant intraocular pressure reducing activity |  |
| Cl.NCCCN(CCCc1cccc(C(=O)O)c1)S(=O)(=O)c1cccc2cnccc12 [Example 128, N-[(5-Isoquinolyl)sulfonyl]-N-[3-(3-carboxy)phenylpropyl]-1,3-propylenediamine hydrochloride] |  | did not inhibit MLCK |  |  |
| COC(=O)c1ccc(CCCN(CCCN)S(=O)(=O)c2cccc3cnccc23)cc1.Cl [Example 130, N-[(5-Isoquinolyl)sulfonyl]-N-[3-(4-methoxycarbonyl)phenylpropyl]-1,3-propylenediamine hydrochloride] |  | did not inhibit MLCK |  |  |
| Cl.N#Cc1cncc2cccc(O[C@H]3CC[C@H](N)CC3)c12 [Example 134, Trans-4-[(4-cyano-5-isoquinolyl)oxy]cyclohexylamine hydrochloride] | significant vasoconstriction inhibitory action |  | significant intraocular pressure reducing activity |  |
| Cl.N[C@H]1CC[C@H](Oc2cccc3cnccc23)CC1 [Example 135, Trans-4-[(5-isoquinolyl)oxy]cyclohexylamine hydrochloride] |  |  | significant intraocular pressure reducing activity |  |
| C=Cc1cncc2cccc(O[C@H]3CC[C@H](N)CC3)c12.Cl [Example 136, Trans-4-[(4-vinyl-5-isoquinolyl)oxy]cyclohexylamine hydrochloride] | significant vasoconstriction inhibitory action |  | significant intraocular pressure reducing activity |  |
| Cc1cncc2cccc(OC3CCNCC3)c12.Cl [Example 139, 4-[(4-Methyl-5-isoquinolyl)oxy]piperidine hydrochloride] | significant vasoconstriction inhibitory action |  | significant intraocular pressure reducing activity |  |
| Cl.Nc1nccc2c(O[C@H]3CC[C@@H](N)CC3)cccc12 [Example 141, Cis-4-[(1-amino-5-isoquinolyl)oxy]cyclohexylamine hydrochloride] |  | did not inhibit MLCK |  |  |
| Cl.OCCCN1CCC(Nc2cccc3cnccc23)CC1 [Example 145, 1-(3-Hydroxypropyl)-4-(5-isoquinolyl)aminopiperidine hydrochloride] |  |  | significant intraocular pressure reducing activity |  |

From US7094789B2, “5-substituted isoquinoline derivatives” (Asahi Kasei Pharma Corporation, priority 2002, dated 2006)
